Assay results reported in patent US20250002470A1, “NITROGEN-CONTAINING COMPOUND, PREPARATION METHOD THEREFOR AND APPLICATION THEREOF” (ZHEJIANG AIXPLORER BIOTECH CO., LTD., priority 2021, published 2025).

How the values were obtained:
[1] = biological target: T1, NLRP3 (Homo sapiens, UniProt Q96P20); assay: IL-1β (interleukin-1β) secretion in IFN-γ-differentiated, LPS/ATP-stimulated THP-1 cells (half inhibition rate of NLRP3); assay type: cell-based; settings: IFN-γ 25 ng/mL, LPS 50 ng/mL, ATP 5 mM
T1 construct: endogenous in cells; host or cells: THP-1 cells (IFN-γ differentiated, LPS primed, ATP stimulated)
T1 sequence (Q96P20 whole entry): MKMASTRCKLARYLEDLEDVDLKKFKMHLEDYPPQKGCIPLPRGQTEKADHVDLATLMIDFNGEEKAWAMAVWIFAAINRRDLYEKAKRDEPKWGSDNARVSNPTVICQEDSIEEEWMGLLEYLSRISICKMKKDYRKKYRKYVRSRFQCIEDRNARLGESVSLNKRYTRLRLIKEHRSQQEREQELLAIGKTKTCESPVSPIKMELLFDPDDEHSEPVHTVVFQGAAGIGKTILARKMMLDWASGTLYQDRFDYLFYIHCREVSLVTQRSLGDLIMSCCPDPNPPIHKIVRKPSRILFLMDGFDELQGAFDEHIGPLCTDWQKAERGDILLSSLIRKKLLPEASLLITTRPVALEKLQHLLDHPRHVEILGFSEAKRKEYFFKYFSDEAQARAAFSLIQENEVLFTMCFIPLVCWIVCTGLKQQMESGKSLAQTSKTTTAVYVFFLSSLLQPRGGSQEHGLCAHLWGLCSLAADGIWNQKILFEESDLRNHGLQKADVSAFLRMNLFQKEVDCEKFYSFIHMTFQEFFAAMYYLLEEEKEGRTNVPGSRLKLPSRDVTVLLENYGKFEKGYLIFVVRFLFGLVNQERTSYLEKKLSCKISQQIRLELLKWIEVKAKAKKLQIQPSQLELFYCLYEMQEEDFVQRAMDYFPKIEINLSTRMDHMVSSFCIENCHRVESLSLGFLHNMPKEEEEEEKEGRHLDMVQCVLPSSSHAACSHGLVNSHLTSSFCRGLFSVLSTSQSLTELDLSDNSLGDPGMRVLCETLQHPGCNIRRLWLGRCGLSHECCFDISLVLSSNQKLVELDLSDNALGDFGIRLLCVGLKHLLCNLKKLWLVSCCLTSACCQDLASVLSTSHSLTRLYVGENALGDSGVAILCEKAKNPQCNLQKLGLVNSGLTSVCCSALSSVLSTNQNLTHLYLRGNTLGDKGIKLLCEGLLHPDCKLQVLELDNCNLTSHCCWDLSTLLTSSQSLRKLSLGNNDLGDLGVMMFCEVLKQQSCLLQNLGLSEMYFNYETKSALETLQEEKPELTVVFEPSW
Outline: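 IFN-γ-differentiated THP-1 cells primed with LPS (final 50 ng/mL, 4 h, serum-free), then given compound for 1 h and ATP (final 5 mM) for 1 h at 37 °C. Secreted IL-1β in supernatant quantified by sandwich ELISA (mAb Mt175 capture, biotinylated mAb7P10 detection, streptavidin-HRP/TMB, 450 nm).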

[2] = biological target: hERG potassium channel (Homo sapiens, UniProt Q12809); assay: Whole-cell patch-clamp (QPatch) of hERG current in HEK293 cells stably expressing hERG; assay type: cell-based
hERG potassium channel, sequence (Q12809 whole entry): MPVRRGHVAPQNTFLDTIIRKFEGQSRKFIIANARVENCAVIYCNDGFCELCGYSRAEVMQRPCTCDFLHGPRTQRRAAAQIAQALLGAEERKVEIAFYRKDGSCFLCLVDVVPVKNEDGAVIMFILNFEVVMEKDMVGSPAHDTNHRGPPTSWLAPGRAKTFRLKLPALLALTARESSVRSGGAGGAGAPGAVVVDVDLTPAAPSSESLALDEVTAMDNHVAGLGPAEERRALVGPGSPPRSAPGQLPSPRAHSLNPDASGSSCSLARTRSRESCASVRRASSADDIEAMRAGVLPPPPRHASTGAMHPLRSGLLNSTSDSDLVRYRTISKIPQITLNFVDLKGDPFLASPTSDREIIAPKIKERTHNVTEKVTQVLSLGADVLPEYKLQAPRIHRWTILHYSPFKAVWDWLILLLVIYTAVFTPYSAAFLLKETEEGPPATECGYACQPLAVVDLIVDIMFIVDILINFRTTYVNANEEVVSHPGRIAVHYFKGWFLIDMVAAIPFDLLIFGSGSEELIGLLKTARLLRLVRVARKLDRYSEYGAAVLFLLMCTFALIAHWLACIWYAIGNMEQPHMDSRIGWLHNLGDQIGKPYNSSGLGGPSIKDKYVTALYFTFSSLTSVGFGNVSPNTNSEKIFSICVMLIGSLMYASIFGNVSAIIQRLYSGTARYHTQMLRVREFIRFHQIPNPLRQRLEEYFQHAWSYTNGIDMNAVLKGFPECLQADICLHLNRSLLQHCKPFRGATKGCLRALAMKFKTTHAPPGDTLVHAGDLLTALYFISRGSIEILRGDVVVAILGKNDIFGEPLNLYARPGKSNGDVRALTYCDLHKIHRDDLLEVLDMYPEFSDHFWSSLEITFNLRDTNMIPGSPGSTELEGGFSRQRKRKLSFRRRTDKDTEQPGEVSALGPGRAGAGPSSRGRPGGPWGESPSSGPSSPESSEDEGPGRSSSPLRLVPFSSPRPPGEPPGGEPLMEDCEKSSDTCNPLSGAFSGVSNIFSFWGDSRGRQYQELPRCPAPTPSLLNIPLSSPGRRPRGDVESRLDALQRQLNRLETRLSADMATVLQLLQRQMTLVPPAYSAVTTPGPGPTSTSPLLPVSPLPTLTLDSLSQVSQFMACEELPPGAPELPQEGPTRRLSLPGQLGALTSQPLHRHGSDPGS
Description: In this study, a whole-cell patch-clamp technique was used to study the inhibitory effect of compounds on hERG potassium channels and to evaluate the risk of ventricular repolarization toxicity.
The HEK293 cell line stably expressing the hERG potassium channel cells was purchased from Creacell, Inc. (Cat. No. A-0320).
The HEK293 cell line that can stably express the hERG potassium channel, was cultured in DMEM medium containing 10% fetal bovine serum and 0.8 mg/mL G418 at 37° C. and 5% carbon dioxide.
Before the test, the cells were separated with TrypLET Express, centrifuged after adding medium to terminate digestion, resuspended the cell count, adjusted the cell density to 2-3×10^6 cells/mL, and then lightly mixed the cells on a room temperature equilibration shaker for 15-20 min.
Electrophysiological assays were performed using a fully automated patch-clamp QPatch 48 X (Sophion) device. The prepared cells were placed on a centrifuge on the Qpatch bench, the cells were washed using multiple centrifugation/suspension methods, and the cell culture medium was replaced with extracellular fluid. Remove an MTP-96 plate and place it in the location of the MTP source. Remove the QPlate chip and subsequently place the QPlate at the Qplate source location. The robotic arm scans the MTP-96 board and the QPlate chip barcode and grabs it to the measuring station. Draw the intracellular and external fluid from the liquid pool and add them to the intracellular fluid pool, cell and test cell pool of the QPlate chip, respectively. At the measuring station, all measuring sites on the QPlate undergo initial quality control. The quality control process includes aspirating the cell suspension from the cell vessel of the centrifuge and positioning the cells to the chip wells via a pressure controller to establish a high-resistance seal and create a whole-cell recording pattern.
The voltage stimulation protocol for whole-cell patch-clamp recording of whole-cell hERG potassium currents is as follows: the cell membrane voltage clamps at −80 mV when a whole-cell closure is formed. The clamping voltage is depolarized from −80 mV to −50 mV for 0.5 s (as a leakage current detection), then steps to 30 mV for 2.5 s, and then quickly recovers to −50 mV for 4 s to excite the tail current of the hERG channel. The data were collected repeatedly every 10 s to observe the effect of the drug on the hERG tail current. −50 mV stimulation at 0.5 s was used as the leakage current detection. The test data is collected by Qpatch and stored in the connected service station.
First, the current after the effect of each drug concentration and the blank control current are normalized 0, and then the inhibition rate corresponding to each drug concentration is calculated.
Calculate the mean and standard error for each concentration and calculate the semi-inhibitory concentration for each compound using the following Formula:
Y=Bottom+(Top−Bottom)/(1+10^((LogIC50−X)*HillSlope)) The above Formula was used to fit the dose-dependent effect nonlinearly, where C represents the test substance concentration, IC50 is the semi-inhibitory concentration, and h represents the Hill coefficient. Curve fitting and IC50 calculations were performed using Graphpad software.

[3] = In vivo pharmacokinetic evaluation in mice (IV and PO); settings: CD-1 mice; for AUC / clearance / half-life / Vd / Cmax: mouse, plasma; for Vd: read-out: Vss
Description: CD-1 mice, after fasting overnight (free drinking), are divided into tail vein (IV) and gavage administration (PO) groups. The tail vein administration group collected 0.1 mL of blood from the orbital venous plexus before administration and 5 minutes, 15 minutes, 0.5 hours, 1 hour, 2 hours, 4 hours, 8 hours, 12 hours, and 24 hours after administration, and sample centrifugation at 4° C. for 5 minutes, and stored at −70° C. for testing. […] The plasma parent drug concentration was determined by LC-MS/MS.

Row | Compound | IC50 [1] [nM] | F ([3]; PO, 20 mg/kg) [%] | AUC ([3]; IV, 3 mg/kg) [ng·h/mL] | clearance ([3]; IV, 3 mg/kg) [mL/min/kg] | half-life ([3]; IV, 3 mg/kg) [h] | Vd ([3]; IV, 3 mg/kg) [L/kg] | AUC ([3]; PO, 20 mg/kg) [ng·h/mL] | Cmax ([3]; PO, 20 mg/kg) [ng/mL] | half-life ([3]; PO, 20 mg/kg) [h] | IC50 [2] [nM]
1 | Cc1nc(N[C@H]2C[C@@](C)(O)C2)nnc1-c1ccc(C(F)(F)F)cc1O [Embodiment 37, 2-(3-(((cis)-3-hydroxy-3-methylcyclobutyl)amino)-5-methyl-1,2,4-triazin-6-yl)-5-(trifluoromethyl)phenol] | 27.3 |  |  |  |  |  |  |  |  | > 30000
2 | Oc1cc(C(F)(F)F)ccc1-c1nnc(N[C@@H]2CCCC[C@H]2O)c2ccccc12 [Embodiment 64] | 4.7 |  |  |  |  |  |  |  |  | > 30000
3 | Cc1cc(C)c(-c2cnc(N[C@@H]3CCCN(C4CC4)C3)nn2)c(O)c1 [Embodiment 6, (R)-2-(3-((1-cyclopropylpiperidin-3-yl)amino)-1,2,4-triazin-6-yl)-3,5-dimethylphenol] | 7.4 |  |  |  |  |  |  |  |  | > 30000
4 | Oc1cc(C(F)(F)F)ccc1-c1nnc(N[C@@H]2CCCC[C@H]2O)c2c(F)cccc12 [Embodiment 135] | 5.1 |  |  |  |  |  |  |  |  | > 30000
5 | Cc1nc(N[C@@H]2CCCN(CC(C)(C)O)C2)nnc1-c1ccc(C(F)(F)F)cc1O [Embodiment 133] | 6.6 |  |  |  |  |  |  |  |  | > 30000
6 | Cc1cc(C(F)(F)F)cc(O)c1-c1cnc(N[C@H]2C[C@@](C)(O)C2)nn1 [Embodiment 40, 2-(3-(((cis)-3-hydroxy-3-methylcyclobutyl)amino)-1,2,4-triazin-6-yl)-3-methyl-5-(trifluoromethyl)phenol] | 12.4 |  |  |  |  |  |  |  |  | > 30000

More lines, main results first:

Row | IC50 [1] [nM] | F ([3]; PO, 20 mg/kg) [%] | AUC ([3]; IV, 3 mg/kg) [ng·h/mL] | clearance ([3]; IV, 3 mg/kg) [mL/min/kg] | half-life ([3]; IV, 3 mg/kg) [h] | Vd ([3]; IV, 3 mg/kg) [L/kg] | AUC ([3]; PO, 20 mg/kg) [ng·h/mL] | Cmax ([3]; PO, 20 mg/kg) [ng/mL] | half-life ([3]; PO, 20 mg/kg) [h] | Compound | IC50 [2] [nM]
7 | 4.4 | 93.8 | 3250 | 15.1 | 6.07 | 2.35 | 20300 | 6520 | 5.67 | Oc1cc(C(F)(F)F)ccc1-c1nnc(N[C@@H]2CCCC[C@H]2O)c2cc(F)ccc12 [Embodiment 136] | > 30000
8 | 14.4 | 95.2 | 4750 | 10.5 | 4.17 | 3 | 30100 | 7730 | 3.68 | Cc1nc(N[C@@H]2CCCN([C@H](C)CO)C2)nnc1-c1ccc(C(F)(F)F)cc1O [Embodiment 148] | > 30000
9 | 40.2 |  |  |  |  |  |  |  |  | Cc1cc(C)c(-c2cnc(N[C@@H]3CCCN(CCO)C3)nn2)c(O)c1 [Embodiment 2, (R)-2-(3-((1-(2-hydroxyethyl)piperidin-3-yl)amino)-1,2,4-triazin-6-yl)-3,5-dimethylphenol] | > 30000
10 | 9 | 78.7 | 3290 | 15.2 | 3.28 | 3.39 | 17200 | 5710 | 2.76 | Cc1nc(N[C@@H]2CCCN([C@@H](C)CO)C2)nnc1-c1ccc(C(F)(F)F)cc1O [Embodiment 147] | > 30000
11 | 2.8 |  |  |  |  |  |  |  |  | C[C@]1(O)C[C@@H](Nc2nnc(-c3ccc(C(F)(F)F)cc3O)c3cnccc23)C1 [Embodiment 78] | > 30000
12 | 0.4 | 95.3 | 2950 | 16.8 | 4.02 | 4.35 | 18800 | 4530 | 3.62 | Cc1nc(N[C@@H]2CCCN(CCO)C2)nnc1-c1ccc(C(F)(F)F)cc1O [Embodiment 44, (R)-2-(3-((1-(2-hydroxyethyl)piperidin-3-yl)amino)-5-methyl-1,2,4-triazin-6-yl)-5-(trifluoromethyl)phenol] | > 30000
13 | 2.5 |  |  |  |  |  |  |  |  | OCCN1CCC[C@@H](Nc2nnc(-c3ccc(Cl)cc3O)c3ccccc23)C1 [Embodiment 155] | > 30000
14 | 4.1 | 88.5 | 3160 | 15.8 | 2.81 | 3.56 | 18600 | 3070 | 2.53 | Cc1nc(N[C@@H]2CCCN(C(C)(C)CO)C2)nnc1-c1ccc(C(F)(F)F)cc1O [Embodiment 132] | > 30000
